PMC4922569, “Antifibrotic Effects of the Dual CCR2/CCR5 Antagonist Cenicriviroc in Animal Models of Liver and Kidney Fibrosis” (PLoS ONE, 2016)
Structures can show the parent of a compound that is named as a salt.

Columns and labels:
[1] = system: monocyte/macrophage recruitment; assay: Thioglycollate (TG)-induced mouse model of peritonitis: peritoneal lavage monocyte/macrophage counts; format: in vivo; conditions: for Decrease in peritoneal lavage monocyte/macrophage counts compared to vehicle control: 48 h post-TG
Protocol: A murine thioglycollate (TG)-induced model of peritonitis, where acute inflammation induced by intraperitoneal (IP) injection of TG results in a rapid increase in monocyte/macrophage migration into the peritoneal cavity, was employed to assess the effects of CVC on cell recruitment in vivo. The protocol was approved by the IACUC of Charles River Laboratories Preclinical Services, Montreal (PCS-MTL). The care and use of animals was conducted in accordance with the guidelines of the US National Research Council and the Canadian Council on Animal Care.
(§1) Male C57BL/6 mice (n = 44; 8–10 weeks of age; Charles River Laboratories, Canada) were allocated to receive treatments via oral gavage (PO) on Days 1–5 in the following groups: non-disease control, vehicle control twice daily (BID), CVC 5 mg/kg/day (CVC5) BID, CVC 20 mg/kg/day (CVC20) BID, CVC 100 mg/kg/day (CVC100) BID, CVC20 QD, and positive control dexamethasone (corticosteroid known to reduce inflammation in a variety of animal models) 1 mg/kg QD (S1 Table). On Day 4, peritonitis was induced via IP injection of TG 3.85% (1 mL/animal) 2 hours post-dose in all groups except non-disease controls. Study endpoints included: peritoneal lavage cell counts and pharmacokinetic (PK) evaluation. Animals were sacrificed 48 hours post-TG injection by isoflurane inhalation, and peritoneal lavage and blood samples (0.7 mL) were collected. Differential cell counts were assessed in peritoneal lavage samples using an Advia® Hematology System (Siemens Healthcare Diagnostics, USA) with multispecies software and an analysis software designed for mouse peritoneal fluid on Advia® 120 (LabThruPut, USA). A 0.3 mL aliquot of the blood sample was processed to plasma for PK analysis.
In the peritonitis mouse model, one-way analysis of variance with post-hoc Dunnett’s test was performed, using GraphPad Prism® (GraphPad Software, Inc., USA), on differential cell counts obtained from lavage in treatment groups versus the vehicle-control group. For the ex vivo migration of mouse monocytes, statistical significance was determined by a Student’s t test.

[2] = CVC plasma levels in the TG-induced model of peritonitis (LC/MS/MS); format: in vivo; conditions: male, C57BL/6, mouse, oral, 20 mg/kg/day, CVC20 QD, n = 5, 26 hours post-dose, read-out: CVC trough plasma level
Protocol: as §1
CVC plasma levels (minimum and maximum) were determined by KCAS Bioanalytical Services, USA, using a validated liquid chromatography-tandem mass spectrometry (LC/MS/MS) plasma method (50 μL assay, range 10.0−1920.0 ng/mL).

[3] = Body and liver weights, TAA model; format: in vivo, rat; conditions: average±SD
Protocol: Using male Sprague-Dawley rats (n = 72, 10–12 weeks of age; Harlan Laboratories, USA), fibrosis was induced by IP administration of TAA at a dose of 150 mg/kg three times per week for 8 weeks. Rats (n = 4–8/group) received vehicle control, CVC 30 mg/kg/day (CVC30) or CVC100 QD PO during Weeks 0–8 (early intervention), Weeks 4–8 (established fibrosis) or Weeks 8–12 (cirrhosis reversal) and were sacrificed at Weeks 8, 8 or 12, respectively (S1 Table). Study endpoints included: body and liver weights, liver biochemistry (e.g. serum alanine and aspartate aminotransferase [ALT/AST]), extracellular matrix protein expression in liver tissue (collagen type 1 and alpha-SMA), mRNA expression (collagen type 1, alpha-SMA, beta-platelet-derived growth factor-beta receptor, TGF beta-receptor, matrix metalloproteinase 2, tissue inhibitor of metalloproteinases 1 [TIMP1] and 2 [TIMP2]) and liver morphology. For liver-function testing, plasma samples were obtained from blood collected from the vena cava. Livers were sectioned and fixed in 3.7% formalin, embedded in paraffin, cut at […] thickness and stained with hematoxylin and eosin (H&E) for histological examination.
(§2) Body weight (measured before and during treatment) and sacrificed animal body and liver/kidney/spleen weights were recorded.

[4] = Body and liver weights, NASH model; format: in vivo, mouse; conditions: mean±SD
Protocol: NASH was induced in male C57BL/6 mice (Charles River Laboratories, Japan) via subcutaneous injection of 200 μg of streptozotocin 2 days post-birth (causing mild islet inflammation and islet destruction) plus a high-fat diet (57 kcal% fat) from 4 weeks of age (sequentially causing fatty changes to the liver, NASH and fibrosis). From Weeks 6 to 9, three groups (n = 9/group) received vehicle control, CVC20 or CVC100 BID PO (S1 Table). At Week 9, six animals per group were sacrificed for assessment of liver fibrosis and Non-Alcoholic Fatty Liver Disease (NAFLD) Activity Score (NAS). The animals were sacrificed by exsanguination through direct cardiac puncture under ether anesthesia. Study endpoints included: body and liver weights, plasma biochemistry (e.g. ALT and CCL2), extracellular matrix protein in liver tissue (hydroxyproline content), mRNA expression (collagen type 1, tumor necrosis factor-alpha, MCP-1, TIMP1) and histopathological analyses. Blood samples were collected and plasma samples derived for biochemistry assessments. Sections were cut from paraffin blocks of liver tissue, prefixed in Bouin’s solution and stained with H&E for histological examination.
as §2

CCR2 on monocytes = system: CCR2 on monocytes; parameters: method as in earlier work; conditions: at 6 nmol/L; human PBMC ex vivo; cited from earlier work
[5] = system: CCR5 on CD4+ and CD8+ T-cells; parameters: method as in earlier work; conditions: human PBMC ex vivo, cited from earlier work
[6] = system: hepatic fibrosis scores (APRI, FIB-4, ELF); conditions: cited from earlier work
[7] = system: CCl4-induced liver injury; conditions: cited from earlier work
[8] = cirrhosis reversal, CVC 30 mg/kg/day
[9] = cirrhosis reversal, CVC 100 mg/kg/day
[10] = early intervention, CVC 30 mg/kg/day
[11] = early intervention, CVC 100 mg/kg/day
[12] = established fibrosis, CVC 30 mg/kg/day
[13] = established fibrosis, CVC 100 mg/kg/day
[14] = between Baseline and Week 24, maintained at Week 48

## CCCCOCCOc1ccc(-c2ccc3c(c2)/C=C(/C(=O)Nc2ccc([S@@+]([O-])Cc4cncn4CCC)cc2)CCCN3CC(C)C)cc1 [CVC, cenicriviroc mesylate]
[1]; CVC5 (5 mg/kg/day) BID PO Days 1-5
  Decrease in peritoneal lavage monocyte/macrophage counts compared to vehicle control: 5.7%
[1]; CVC20 (20 mg/kg/day) BID PO Days 1-5
  Decrease in peritoneal lavage monocyte/macrophage counts compared to vehicle control: 45.2%
[1]; CVC20 (20 mg/kg/day) QD PO Days 1-5
  Decrease in peritoneal lavage monocyte/macrophage counts compared to vehicle control: 26.0%
[1]; CVC100 (100 mg/kg/day) BID PO Days 1-5
  Decrease in peritoneal lavage monocyte/macrophage counts compared to vehicle control: 76.5%
[1]; CVC100 BID vs dexamethasone 1 mg/kg QD, p < 0.001
  Greater reduction in monocyte/macrophage count compared to dexamethasone: 62.1%
[1]; p < 0.05 vs vehicle control
  Doses achieving statistically significant decrease in monocyte/macrophage recruitment: ≥ 20 mg/kg/day
[2]
  concentration at 26 h: 25.7 ± 8.1 ng/mL
[3]; [8]
  Final body weight: 390.3 ± 9.3 g
  Liver weight: 19 ± 0.7 g
  Liver-to-body weight ratio: 4.9±0.2%
[3]; [9]
  Final body weight: 386.4 ± 4.9 g
  Liver weight: 18.5 ± 0.7 g
  Liver-to-body weight ratio: 4.8±0.2%
[3]; [10]
  Final body weight: 330.9 ± 6.4 g
  Liver weight: 17.9 ± 1.6 g
  Liver-to-body weight ratio: 5.4±0.5%
[3]; [11]
  Final body weight: 347.2 ± 6.9 g
  Liver weight: 17.5 ± 0.5 g
  Liver-to-body weight ratio: 5.0±0.1%
[3]; [12]
  Final body weight: 342.0 ± 7.7 g
  Liver weight: 15.6 ± 0.6 g
[3]; established fibrosis, CVC 30 mg/kg/day, p < 0.05 vs vehicle control
  Liver-to-body weight ratio: 4.6±0.1 %
[3]; [13]
  Final body weight: 327.3 ± 7.8 g
  Liver weight: 15.8 ± 0.9 g
  Liver-to-body weight ratio: 4.8±0.2%
[4]; CVC 20 mg/kg/day
  Final body weight: 19.5 ± 2.0 g
  Liver weight: 1334 ± 99 mg
  Liver-to-body weight ratio: 6.9±1.0%
[4]; CVC 100 mg/kg/day
  Final body weight: 18.7 ± 0.9 g
  Liver weight: 1307 ± 119 mg
  Liver-to-body weight ratio: 7.0±0.8%
CCR2 on monocytes
  Receptor occupancy for CCR2 on monocytes: ~ 98%
[5]; at 2.3 nmol/L
  Receptor occupancy for CCR5 on CD8+ T-cells: ≥ 90%
[5]; at 3.1 nmol/L
  Receptor occupancy for CCR5 on CD4+ T-cells: ≥ 90%
[6]; Week 48, p < 0.0001
  Enhanced liver fibrosis (ELF) scores: significant reduction
[6]; [14]
  Decrease in proportion of subjects with APRI score ≥0.5: 75%
  Decrease in proportion of subjects with FIB-4 score ≥1.45: 73%
[7]; CCl4 model, preliminary data
  Infiltration of Ly6Chi monocyte-derived macrophages into the liver: significantly decreased
[7]; acute CCl4 model
  Necrotic area: significant reduction
